Results published in US8124744B2, “Macrolide derivatives” (Taisho Pharmaceutical Co., Ltd., priority 2006, dated 2012).

Columns and labels:
[1] = tested on: pro MMP-9 protein; test: Inhibitory activity against proMMP-9 protein production (TNF α-stimulated mouse peritoneal exudate cells, ELISA); assay type: cell-based, C57BL/6J mice; conditions: relative activity when the value of Comparative Agent 1 (IC50 = 10.04 ± 4.11 μM) is 10, on the increase of pro MMP-9 by TNF α 25 ng/ml, 24 hours, read-out: IC50 (μM)*
Protocol: (§1) To 7- to 9-week male C57BL/6J mice (purchased from CLEA Japan, Inc. or Japan SLC, Inc.), Zymosan A (SIGMA) derived from budding yeasts which is adjusted to be 1 mg/ml in a phosphate buffer solution (PBS, 10010-49, Invitrogen) was administered intraperitoneally at 1 ml per mouse to induce peritonitis. Three days later, filter-sterilized cell recovery buffer (2 mM EDTA, 0.5% bovine serum albumin, PBS, pH 7.4) was administered intraperitoneally at 5 ml per mouse to recover peritoneal exudata cells. The cells went through a cell strainer (70 μm nylon, FALCON) and were then washed twice with a Hanks solution (Invitrogen). The cells were suspended in 10% fetal calf serum-containing Dulbecco's modified Eagle's culture medium (Invitrogen). The suspension was seeded on a plate with 48 wells, after 6 hours, the culture medium was completely exchanged. After culturing for another 18 hours, test compounds were added at 0.02 to 20 μM of the final concentration. After 1 hour from the addition of the compounds, a tumor necrosis factor (TNF) α (R & D Systems) was added at 25 ng/ml of the final concentration, and 24 hours later, the culture supernatant was collected. The amount of pro MMP-9 protein in the supernatant was quantified by an enzyme-linked immunosorbent assay (ELISA) (R & D Systems), IC50 values of the test compounds on the increased amount by TNF α stimuli, were calculated by ORIGIN analysis software (trade name: OriginLab). In addition, minimal inhibitory concentration (MIC) of each test compounds (measured bacterium: Staphylococcus aureus ATCC29213) was measured. As a comparative agent […] A (clarithromycin) was used.

[2] = tested on: Staphylococcus aureus ATCC29213; test: Minimal inhibitory concentration (MIC); assay type: cell-based
Protocol: as §1

CC[C@H]1OC(=O)[C@H](C)[C@@H](O[C@H]2C[C@@](C)(OC)[C@@H](O)[C@H](C)O2)[C@H](C)[C@@H](O[C@@H]2O[C@H](C)C[C@H](N(C)C)[C@H]2OCCCNS(C)(=O)=O)[C@@](C)(OC)C[C@@H](C)C(=O)[C@H](C)[C@@H](O)[C@]1(C)O [Example 117, 2′-O-(3-methanesulfonylamidepropyl)-6-O-methylerythromycin A]
IC50 [1]: 3.55 µM
MIC [2]: > 128 µg/mL

CC[C@H]1OC(=O)[C@H](C)[C@@H](O[C@H]2C[C@@](C)(OC)[C@@H](OC(C)=O)[C@H](C)O2)[C@H](C)[C@@H](O[C@@H]2O[C@H](C)C[C@H](N(C)C)[C@H]2OCCCN2CCOCC2)[C@@](C)(OC)C[C@@H](C)C(=O)[C@H](C)[C@@H](O)[C@]1(C)O [Example 119, 4″-O-acetyl-2′-O-(3-(4-morpholino)propyl)-6-O-methylerythromycin A]
IC50 [1]: 4.42 µM
MIC [2]: > 128 µg/mL

CC[C@H]1OC(=O)[C@H](C)[C@@H](O[C@H]2C[C@@](C)(OC)[C@@H](OC(C)=O)[C@H](C)O2)[C@H](C)[C@@H](O[C@@H]2O[C@H](C)C[C@H](N(C)C)[C@H]2OCCCN2CCC(O)CC2)[C@@](C)(OC)C[C@@H](C)C(=O)[C@H](C)[C@@H](O)[C@]1(C)O [Example 122, 4″-O-acetyl-2′-O-(3-(4-hydropiperidin-1-yl)propyl)-6-O-methylerythromycin A]
IC50 [1]: 3.06 µM
MIC [2]: > 128 µg/mL

CC[C@H]1OC(=O)[C@H](C)[C@@H](O[C@H]2C[C@@](C)(OC)[C@@H](O)[C@H](C)O2)[C@H](C)[C@@H](O[C@@H]2O[C@H](C)C[C@H](N(C)CCCOCc3ccccc3)[C@H]2OC)[C@@](C)(OC)C[C@@H](C)C(=O)[C@H](C)[C@@H](O)[C@]1(C)O [Example 129, 3′-N-demethyl-3′-N-(3-benzyloxypropyl)-6,2′-di-O-methylerythromycin A]
IC50 [1]: < 1.04 µM
MIC [2]: > 128 µg/mL

CC[C@H]1OC(=O)[C@H](C)[C@@H](O[C@H]2C[C@@](C)(OC)[C@@H](O)[C@H](C)O2)[C@H](C)[C@@H](O[C@@H]2O[C@H](C)C[C@H](N(C)CCCN(C)C)[C@H]2OC)[C@@](C)(OC)C[C@@H](C)C(=O)[C@H](C)[C@@H](O)[C@]1(C)O [Example 130, 3′-N-demethyl-3′-N-(3-dimethylaminopropyl)-6,2′-di-O-methylerythromycin A]
IC50 [1]: 1.33 µM
MIC [2]: > 128 µg/mL

CC[C@H]1OC(=O)[C@H](C)[C@@H](O[C@H]2C[C@@](C)(OC)[C@@H](O)[C@H](C)O2)[C@H](C)[C@@H](O[C@@H]2O[C@H](C)C[C@H](N(C)CCCN3CCOCC3)[C@H]2OC)[C@@](C)(OC)C[C@@H](C)C(=O)[C@H](C)[C@@H](O)[C@]1(C)O [Example 131, 3′-N-demethyl-3′-N-(3-(4-morpholino)propyl)-6,2′-di-O-methylerythromycin A]
IC50 [1]: 3.33 µM
MIC [2]: > 128 µg/mL

CC[C@H]1OC(=O)[C@H](C)[C@@H](O[C@H]2C[C@@](C)(OC)[C@@H](O)[C@H](C)O2)[C@H](C)[C@@H](O[C@@H]2O[C@H](C)C[C@H](N(C)CCCO)[C@H]2OC)[C@@](C)(OC)C[C@@H](C)C(=O)[C@H](C)[C@@H](O)[C@]1(C)O [Example 132, 3′-N-demethyl-3′-N-(3-hydroxypropyl)-6,2′-di-O-methylerythromycin A]
IC50 [1]: 2.52 µM
MIC [2]: > 128 µg/mL

CC[C@H]1OC(=O)[C@H](C)[C@@H](O[C@H]2C[C@@](C)(OC)[C@@H](OC(C)=O)[C@H](C)O2)[C@H](C)[C@@H](O[C@@H]2O[C@H](C)C[C@H](N(C)CCCOC(C)=O)[C@H]2OC)[C@@](C)(OC)C[C@@H](C)C(=O)[C@H](C)[C@@H](O)[C@]1(C)O [Example 136, 4″-O-acetyl-3′-N-demethyl-3′-N-(3-acetoxypropyl)-6,2′-di-O-methylerythromycin A]
IC50 [1]: 2.12 µM
MIC [2]: > 128 µg/mL

CC[C@H]1OC(=O)[C@H](C)[C@@H](O[C@H]2C[C@@](C)(OC)[C@@H](O)[C@H](C)O2)[C@H](C)[C@@H](O[C@@H]2O[C@H](C)C[C@H](N)[C@H]2OC)[C@@](C)(OC)C[C@@H](C)C(=O)[C@H](C)[C@@H](O)[C@]1(C)O [Example 138, 3′-N-dedimethyl-6,2′-di-O-methylerythromycin A]
IC50 [1]: 3.95 µM
MIC [2]: > 128 µg/mL

CC[C@H]1OC(=O)[C@H](C)[C@@H](O[C@H]2C[C@@](C)(OC)[C@@H](O)[C@H](C)O2)[C@H](C)[C@@H](O[C@@H]2O[C@H](C)C[C@H](N3CCOCC3)[C@H]2OC)[C@@](C)(OC)C[C@@H](C)C(=O)[C@H](C)[C@@H](O)[C@]1(C)O [Example 139, 3′-N-dedimethylamino-3-(4-morpholino)-6,2′-di-O-methylerythromycin A]
IC50 [1]: 5.51 µM
MIC [2]: > 128 µg/mL

CC[C@H]1OC(=O)[C@H](C)[C@@H](O[C@H]2C[C@@](C)(OC)[C@@H](O)[C@H](C)O2)[C@H](C)[C@@H](O[C@@H]2O[C@H](C)C[C@H](N(C)C)[C@H]2OC)[C@@](C)(OC)C[C@@H](C)[C@H](O)[C@H](C)[C@@H](O)[C@]1(C)O [Example 141, 9-deoxo-9-(S)-hydroxy-6,2′-di-O-methylerythromycin A]
IC50 [1]: 2.18 µM
MIC [2]: > 128 µg/mL

CC[C@H]1OC(=O)[C@H](C)[C@@H](O[C@H]2C[C@@](C)(OC)[C@@H](OC(C)=O)[C@H](C)O2)[C@H](C)[C@@H](O[C@@H]2O[C@H](C)C[C@H](N(C)C)[C@H]2OC)[C@@](C)(OC)C[C@@H](C)C(=O)[C@H](C)[C@H]2NC(=O)O[C@@]21C [Example 148, 4″-O-acetyl-11-amino-11-deoxy-6,2′-di-O-methylerythromycin A 11,12-cyclic carbamate]
IC50 [1]: 7.68 µM
MIC [2]: > 128 µg/mL

CC[C@H]1OC(=O)[C@H](C)C(=O)[C@H](C)[C@@H](O[C@@H]2O[C@H](C)C[C@H](N(C)C)[C@H]2OC)[C@@](C)(OC)C[C@@H](C)C(=O)[C@H](C)[C@@H](O)[C@]1(C)O [Example 155, 3-deoxy-3-oxo-5-O-(2′-O-methyldesosaminyl)-6-O-methylerythronolide A]
IC50 [1]: 9.7 µM
MIC [2]: > 128 µg/mL

CC[C@H]1OC(=O)[C@H](C)[C@@H](O[C@H]2C[C@@](C)(OC)[C@@H](OC(C)=O)[C@H](C)O2)[C@H](C)[C@@H](O[C@@H]2O[C@H](C)C[C@@H](N(C)CCCc3ccncc3)[C@@H]2N(C)C)[C@@](C)(OC)C[C@@H](C)C(=O)[C@H](C)[C@@H](O)[C@]1(C)O [Example 162, 4″-O-acetyl-3′-N-demethyl-2′-deoxy-2′-dimethylamino-3′-N-(3-(4-pyridyl)propyl)-6-O-methylerythromycin A]
IC50 [1]: < 1.5 µM
MIC [2]: > 128 µg/mL

CC[C@H]1OC(=O)[C@H](C)[C@@H](O[C@H]2C[C@@](C)(OC)[C@@H](OC(C)=O)[C@H](C)O2)[C@H](C)[C@@H](O[C@@H]2O[C@H](C)C[C@@H](N3CCC(O)CC3)[C@@H]2N(C)C)[C@@](C)(OC)C[C@@H](C)C(=O)[C@H](C)[C@@H](O)[C@]1(C)O [Example 164, 4″-O-acetyl-3′-dedimethylamino-2′-deoxy-2′-dimethylamino-3′-(4-hydroxypiperidin-1-yl)-6-O-methylerythromycin A]
IC50 [1]: 2.77 µM
MIC [2]: > 128 µg/mL

CC[C@H]1OC(=O)[C@H](C)[C@@H](O[C@H]2C[C@@](C)(OC)[C@@H](O)[C@H](C)O2)[C@H](C)[C@@H](O[C@@H]2O[C@H](C)C[C@@H](N3CCN(CCN(C)C)CC3)[C@@H]2N(C)C)[C@@](C)(OC)C[C@@H](C)C(=O)[C@H](C)[C@@H](O)[C@]1(C)O [Example 169, 3′-dedimethylamino-2′-deoxy-2′-dimethylamino-3′-(4-(2-dimethylaminoethyl)piperazin-1-yl)-6-O-methylerythromycin A]
IC50 [1]: 2.89 µM
MIC [2]: > 128 µg/mL
